Experimental findings from patent US12134610B2, “Somatostatin subtype-2 receptor (SST2R) targeted therapeutics and uses thereof” (priority 2022, dated 2024) are described below.

What all share (assay type): cell-based
One assay deals with T1, SST2 (Homo sapiens, UniProt P30874).
T1 construct: host or cells: PathHunter CHO-K1 SST2 cells
Nature of the assay: PathHunter CHO-K1 SST2 internalization assay. To be noted: PathHunter CHO-K1 SST2, 90 min; read-out: Internalization EC50. The method, boiled down: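 PathHunter CHO-K1 SST2 cells, seeded and grown 48 h, were exposed to 11-point 1:3 dilutions of SMDC (top final 10 uM) for 90 min at 37 C, 5% CO2. Beta-Glo luminescence was read after 60 min at room temperature. Background-corrected duplicate means were fitted by four-parameter nonlinear regression to give IC50.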

The test system of assay [1] is NCI-H524 (ATCC) human small cell lung cancer cells. Conditions: 2 h. Summed up:
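NCI-H524 cells (5,000/well) were exposed 24 h after plating to SMDC for 2 h, 11-point two-fold series from 1 uM. After washout they grew a further 70 h. Proliferation was read by CellTiter-Glo luminescence, % inhibition taken vs untreated control, and IC50 fitted by four-parameter nonlinear regression.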

Assay [2] addresses T2, human somatostatin receptor subtype 2 (Homo sapiens, UniProt P30874).
T2 construct: expressed in transfected cells
Put plainly: Functional cAMP assay for SSTR2 agonists (HTRF) in CHO-K1 cells. To be noted: CHO-K1 cells stably expressing human SST2, 20 min; read-out: hSST2 cAMP Avg EC50. Summed up:
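CHO-K1 cells stably expressing receptor, plated 4 days before assay, treated 20 min at 37° C. with compound (typically 0-10,000 nM final) plus IBMX and 1.6 μM NKH477 to raise cAMP. HTRF read, 665/620 nm ratio; cAMP from standard curve, EC50 fitted.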
(Cyclic AMP is a second messenger, typically raised through Gs and lowered through Gi signalling.)

T2 sequence (P30874 whole entry): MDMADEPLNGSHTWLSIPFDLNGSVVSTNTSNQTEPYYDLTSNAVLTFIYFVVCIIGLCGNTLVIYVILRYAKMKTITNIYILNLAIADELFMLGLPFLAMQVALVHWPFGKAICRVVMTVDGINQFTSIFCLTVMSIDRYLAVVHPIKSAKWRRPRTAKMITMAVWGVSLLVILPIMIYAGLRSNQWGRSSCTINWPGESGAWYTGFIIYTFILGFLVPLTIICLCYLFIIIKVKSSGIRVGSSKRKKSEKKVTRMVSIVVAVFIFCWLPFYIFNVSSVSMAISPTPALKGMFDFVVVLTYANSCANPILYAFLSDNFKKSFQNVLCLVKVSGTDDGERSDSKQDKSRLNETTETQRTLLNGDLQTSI
T1 sequence (P30874 whole entry): as above

Consider `CC[C@H](C)[C@@H]([C@@H](CC(=O)N1CCC[C@H]1[C@H](OC)[C@@H](C)C(=O)N[C@H](C)[C@@H](O)c1ccccc1)OC)N(C)C(=O)[C@@H](NC(=O)[C@H](C(C)C)N(C)C(=O)OCc1ccc(NC(=O)[C@H](CCCNC(N)=O)NC(=O)[C@@H](NC(=O)CCCC(=O)N(C)CC(=O)N(C)CC(=O)N(C)CC(=O)NCCNc2ncc(-c3cc(C)cc(F)c3)c(N3CCC(N)CC3)c2-c2nc3ccc(Cl)cc3[nH]2)C(C)C)c(O[C@@H]2O[C@H](C(=O)O)[C@@H](O)[C@H](O)[C@H]2O)c1)C(C)C` [Compound 142], for which the EC50 (in general, the concentration needed to bring the measured effect to its halfway point) on SST2 was 4.4 nM; in assay [1], 91 nM; in assay [2] it was 0.25 nM.
In the same order, the values of `CC[C@H](C)[C@@H]([C@@H](CC(=O)N1CCC[C@H]1[C@H](OC)[C@@H](C)C(=O)N[C@H](C)[C@@H](O)c1ccccc1)OC)N(C)C(=O)[C@@H](NC(=O)[C@H](C(C)C)N(C)C(=O)OCc1ccc(NC(=O)[C@H](CCCNC(N)=O)NC(=O)[C@@H](NC(=O)[C@H](CCC(=O)O)NC(=O)CCOCCC(=O)NCCNc2ncc(-c3cc(C)cc(F)c3)c(N3CCC(N)CC3)c2-c2nc3ccc(Cl)cc3[nH]2)C(C)C)c(O[C@@H]2O[C@H](C(=O)O)[C@@H](O)[C@H](O)[C@H]2O)c1)C(C)C` [Compound 143] are 3 nM, 100 nM and 0.14 nM.
For the molecule `CC[C@H](C)[C@@H]([C@@H](CC(=O)N1CCC[C@H]1[C@H](OC)[C@@H](C)C(=O)N[C@H](C)[C@@H](O)c1ccccc1)OC)N(C)C(=O)[C@@H](NC(=O)[C@H](C(C)C)N(C)C(=O)OCc1ccc(NC(=O)[C@H](CCCNC(N)=O)NC(=O)[C@@H](NC(=O)[C@H](CCC(=O)O)NC(=O)CCOCCOCCOCCOCCC(=O)NCCNc2ncc(-c3cc(C)cc(F)c3)c(N3CCC(N)CC3)c2-c2nc3ccc(Cl)cc3[nH]2)C(C)C)c(O[C@@H]2O[C@H](C(=O)O)[C@@H](O)[C@H](O)[C@H]2O)c1)C(C)C` [Compound 144], the EC50 on SST2 was determined as 6.9 nM; in assay [1], 120 nM; in assay [2] it was 0.21 nM.
On to `CC[C@H](C)[C@@H]([C@@H](CC(=O)N1CCC[C@H]1[C@H](OC)[C@@H](C)C(=O)N[C@H](C)[C@@H](O)c1ccccc1)OC)N(C)C(=O)[C@@H](NC(=O)[C@H](C(C)C)N(C)C(=O)OCc1ccc(NC(=O)[C@H](C)NC(=O)[C@@H](NC(=O)[C@H](CCC(=O)O)NC(=O)CCOCCC(=O)NCCNc2ncc(-c3cc(C)cc(F)c3)c(N3CCC(N)CC3)c2-c2nc3ccc(Cl)cc3[nH]2)C(C)C)c(O[C@@H]2O[C@H](C(=O)O)[C@@H](O)[C@H](O)[C@H]2O)c1)C(C)C` [Compound 145], for which the results for the concentration for a half-maximal effect (EC50) (on SST2; in assay [1]; in assay [2]) were 7.9 nM, 150 nM and 0.25 nM, respectively.
Consider `CC[C@H](C)[C@@H]([C@@H](CC(=O)N1CCC[C@H]1[C@H](OC)[C@@H](C)C(=O)N[C@H](C)[C@@H](O)c1ccccc1)OC)N(C)C(=O)[C@@H](NC(=O)[C@H](C(C)C)N(C)C(=O)OCc1ccc(NC(=O)[C@H](C)NC(=O)[C@@H](NC(=O)[C@H](CCC(N)=O)NC(=O)CCOCCC(=O)NCCNc2ncc(-c3cc(C)cc(F)c3)c(N3CCC(N)CC3)c2-c2nc3ccc(Cl)cc3[nH]2)C(C)C)c(O[C@@H]2O[C@H](C(=O)O)[C@@H](O)[C@H](O)[C@H]2O)c1)C(C)C` [Compound 146], for which the figures for the EC50 (at SST2; in assay [1]; in assay [2]) were 2.1 nM, 4.8 nM and 0.072 nM, respectively.
For `CC[C@H](C)[C@@H]([C@@H](CC(=O)N1CCC[C@H]1[C@H](OC)[C@@H](C)C(=O)N[C@H](C)[C@@H](O)c1ccccc1)OC)N(C)C(=O)[C@@H](NC(=O)[C@H](C(C)C)N(C)C(=O)OCc1ccc(O[C@@H]2O[C@H](C(=O)O)[C@@H](O)[C@H](O)[C@H]2O)c(NC(=O)[C@H](CCCNC(N)=O)NC(=O)[C@@H](NC(=O)CCOCCC(=O)NCCNc2ncc(-c3cc(C)cc(F)c3)c(N3CCC(N)CC3)c2-c2nc3ccc(Cl)cc3[nH]2)C(C)C)c1)C(C)C` [Compound 147], the results for the concentration giving a half-maximal response (EC50) (at SST2; in assay [1]; in assay [2]) were 2.5 nM, 3.2 nM and 0.14 nM, respectively.
In the same order, the values of `CC[C@H](C)[C@@H]([C@@H](CC(=O)N1CCC[C@H]1[C@H](OC)[C@@H](C)C(=O)N[C@H](C)[C@@H](O)c1ccccc1)OC)N(C)C(=O)[C@@H](NC(=O)[C@H](C(C)C)N(C)C(=O)OCc1ccc(O[C@@H]2O[C@H](C(=O)O)[C@@H](O)[C@H](O)[C@H]2O)c(NC(=O)[C@H](C)NC(=O)[C@@H](NC(=O)CCOCCC(=O)NCCNc2ncc(-c3cc(C)cc(F)c3)c(N3CCC(N)CC3)c2-c2nc3ccc(Cl)cc3[nH]2)C(C)C)c1)C(C)C` [Compound 148] are 4.5 nM, 7.9 nM and 0.086 nM.
`CC[C@H](C)[C@@H]([C@@H](CC(=O)N1CCC[C@H]1[C@H](OC)[C@@H](C)C(=O)N[C@H](C)[C@@H](O)c1ccccc1)OC)N(C)C(=O)[C@@H](NC(=O)[C@H](C(C)C)N(C)C(=O)OCc1ccc(NC(=O)[C@H](C)NC(=O)[C@@H](NC(=O)CCOCCOCCC(=O)NCCNc2ncc(-c3cc(C)cc(F)c3)c(N3CCC(N)CC3)c2-c2nc3ccc(Cl)cc3[nH]2)C(C)C)c(O[C@@H]2O[C@H](C(=O)O)[C@@H](O)[C@H](O)[C@H]2O)c1)C(C)C` [Compound 149]: the EC50 on SST2 turned out to be 5.2 nM; in assay [1], 5 nM; in assay [2], 0.099 nM.
In the case of `CC[C@H](C)[C@@H]([C@@H](CC(=O)N1CCC[C@H]1[C@H](OC)[C@@H](C)C(=O)N[C@H](C)[C@@H](O)c1ccccc1)OC)N(C)C(=O)[C@@H](NC(=O)[C@H](C(C)C)N(C)C(=O)OCc1ccc(NC(=O)[C@H](C)NC(=O)[C@@H](NC(=O)CCOCCOCCOCCOCCC(=O)NCCNc2ncc(-c3cc(C)cc(F)c3)c(N3CCC(N)CC3)c2-c2nc3ccc(Cl)cc3[nH]2)C(C)C)c(O[C@@H]2O[C@H](C(=O)O)[C@@H](O)[C@H](O)[C@H]2O)c1)C(C)C` [Compound 150], the EC50 was 5.6 nM on SST2, 9.3 nM in assay [1] and 0.18 nM in assay [2].
Take `CC[C@H](C)[C@@H]([C@@H](CC(=O)N1CCC[C@H]1[C@H](OC)[C@@H](C)C(=O)N[C@H](C)[C@@H](O)c1ccccc1)OC)N(C)C(=O)[C@@H](NC(=O)[C@H](C(C)C)N(C)C(=O)OCc1ccc(NC(=O)[C@H](CCCNC(N)=O)NC(=O)[C@@H](NC(=O)[C@H](CCC(N)=O)NC(=O)CCOCCC(=O)NCCNc2ncc(-c3cc(C)cc(F)c3)c(N3CCC(N)CC3)c2-c2nc3ccc(Cl)cc3[nH]2)C(C)C)c(O[C@@H]2O[C@H](C(=O)O)[C@@H](O)[C@H](O)[C@H]2O)c1)C(C)C` [Compound 151]: the figures for the EC50 (on SST2; in assay [1]; in assay [2]) were 2.2 nM, 8.9 nM and 0.28 nM, respectively.
For `CC[C@H](C)[C@@H]([C@@H](CC(=O)N1CCC[C@H]1[C@H](OC)[C@@H](C)C(=O)N[C@H](C)[C@@H](O)c1ccccc1)OC)N(C)C(=O)[C@@H](NC(=O)[C@H](C(C)C)N(C)C(=O)OCc1ccc(NC(=O)[C@H](C)NC(=O)[C@@H](NC(=O)[C@H](CCC(=O)O)NC(=O)CCOCCOCCOCCOCCC(=O)NCCNc2ncc(-c3cc(C)cc(F)c3)c(N3CCC(N)CC3)c2-c2nc3ccc(Cl)cc3[nH]2)C(C)C)c(O[C@@H]2O[C@H](C(=O)O)[C@@H](O)[C@H](O)[C@H]2O)c1)C(C)C` [Compound 152], the half-maximal effective concentration (EC50) stood at 5.8 nM at SST2, 91 nM in assay [1] and 0.2 nM in assay [2].
Take `CC[C@H](C)[C@@H]([C@@H](CC(=O)N1CCC[C@H]1[C@H](OC)[C@@H](C)C(=O)N[C@H](C)[C@@H](O)c1ccccc1)OC)N(C)C(=O)[C@@H](NC(=O)[C@H](C(C)C)N(C)C(=O)OCc1ccc(NC(=O)[C@H](C)NC(=O)[C@@H](NC(=O)CCOCCC(=O)N(C)CCNc2ncc(-c3cc(C)cc(F)c3)c(N3CCC(N)CC3)c2-c2nc3ccc(Cl)cc3[nH]2)C(C)C)c(O[C@@H]2O[C@H](C(=O)O)[C@@H](O)[C@H](O)[C@H]2O)c1)C(C)C` [Compound 153]: the figures for the concentration for a half-maximal effect (EC50) (at SST2; in assay [1]; in assay [2]) were 14 nM, 98 nM and 0.51 nM, respectively.
With `CC[C@H](C)[C@@H]([C@@H](CC(=O)N1CCC[C@H]1[C@H](OC)[C@@H](C)C(=O)N[C@H](C)[C@@H](O)c1ccccc1)OC)N(C)C(=O)[C@H](C)NC(=O)[C@H](C(C)C)N(C)C(=O)OCc1ccc(NC(=O)[C@@H](NC(=O)[C@@H](NC(=O)CCN(C)CCC(=O)NCCNc2ncc(-c3cc(C)cc(F)c3)c(N3CCC(N)CC3)c2-c2nc3ccc(Cl)cc3[nH]2)C(C)C)C(C)C)c(O[C@@H]2O[C@H](C(=O)O)[C@@H](O)[C@H](O)[C@H]2O)c1` [Compound 154], the figures for the EC50 (on SST2; in assay [1]; in assay [2]) were 25 nM, 29 nM and 0.16 nM, respectively.
Regarding `CC[C@H](C)[C@@H]([C@@H](CC(=O)N1CCC[C@H]1[C@H](OC)[C@@H](C)C(=O)N[C@H](C)[C@@H](O)c1ccccc1)OC)N(C)C(=O)[C@@H](NC(=O)[C@H](C(C)C)N(C)C(=O)OCc1ccc(NC(=O)[C@H](C)NC(=O)[C@@H](NC(=O)CCNCCC(=O)NCCNc2ncc(-c3cc(C)cc(F)c3)c(N3CCC(N)CC3)c2-c2nc3ccc(Cl)cc3[nH]2)C(C)C)c(O[C@@H]2O[C@H](C(=O)O)[C@@H](O)[C@H](O)[C@H]2O)c1)C(C)C` [Compound 155], the half-maximal effective concentration (EC50) on SST2 was 29 nM; in assay [1], 71 nM; in assay [2] it was 0.24 nM.
